Active and inactive are the calls of the source. How the calls were made is not given here.
Test system: CCRIS mutagenicity, Ames/micronucleus/aberration tests
Assay: CCRIS mutagenicity studies
[1] = Test System: AMES SALMONELLA TYPHIMURIUM, Strain/Indicator: TA98, Metabolic Activation: NONE, Method: STANDARD PLATE
[2] = Test System: AMES SALMONELLA TYPHIMURIUM, Strain/Indicator: TA100, Metabolic Activation: NONE, Method: STANDARD PLATE
[3] = Test System: AMES SALMONELLA TYPHIMURIUM, Strain/Indicator: TA102, Metabolic Activation: NONE, Method: STANDARD PLATE
[4] = Test System: AMES SALMONELLA TYPHIMURIUM, Strain/Indicator: TA98, Metabolic Activation: NONE, Method: PREINCUBATION
[5] = Test System: AMES SALMONELLA TYPHIMURIUM, Strain/Indicator: TA100, Metabolic Activation: NONE, Method: PREINCUBATION
[6] = Test System: AMES SALMONELLA TYPHIMURIUM, Strain/Indicator: TA98, Metabolic Activation: HAMSTER, LIVER, S-9, AROCLOR 1254 (10%), Method: PREINCUBATION
[7] = Test System: AMES SALMONELLA TYPHIMURIUM, Strain/Indicator: TA98, Metabolic Activation: RAT, LIVER, S-9, AROCLOR 1254 (10%), Method: PREINCUBATION
[8] = Test System: AMES SALMONELLA TYPHIMURIUM, Strain/Indicator: TA100, Metabolic Activation: HAMSTER, LIVER, S-9, AROCLOR 1254 (10%), Method: PREINCUBATION
[9] = Test System: AMES SALMONELLA TYPHIMURIUM, Strain/Indicator: TA100, Metabolic Activation: RAT, LIVER, S-9, AROCLOR 1254 (10%), Method: PREINCUBATION
[10] = Test System: AMES SALMONELLA TYPHIMURIUM, Strain/Indicator: TA1535, Metabolic Activation: HAMSTER, LIVER, S-9, AROCLOR 1254 (10%), Method: PREINCUBATION
[11] = Test System: AMES SALMONELLA TYPHIMURIUM, Strain/Indicator: TA1535, Metabolic Activation: NONE, Method: PREINCUBATION
[12] = Test System: AMES SALMONELLA TYPHIMURIUM, Strain/Indicator: TA1535, Metabolic Activation: RAT, LIVER, S-9, AROCLOR 1254 (10%), Method: PREINCUBATION
[13] = Test System: AMES SALMONELLA TYPHIMURIUM, Strain/Indicator: TA1537, Metabolic Activation: HAMSTER, LIVER, S-9, AROCLOR 1254 (10%), Method: PREINCUBATION
[14] = Test System: AMES SALMONELLA TYPHIMURIUM, Strain/Indicator: TA1537, Metabolic Activation: NONE, Method: PREINCUBATION
[15] = Test System: AMES SALMONELLA TYPHIMURIUM, Strain/Indicator: TA1537, Metabolic Activation: RAT, LIVER, S-9, AROCLOR 1254 (10%), Method: PREINCUBATION

## O=C1c2ccccc2C(=O)N1SC1CCCCC1
Test System: AMES SALMONELLA TYPHIMURIUM, Strain/Indicator: TA97, Metabolic Activation: NONE, Method: STANDARD PLATE
  mutagenic call: inactive; negative
Test System: AMES SALMONELLA TYPHIMURIUM, Strain/Indicator: TA97, Metabolic Activation: RAT LIVER S-9, DELOR 103 (4% OR 10%), Method: STANDARD PLATE
  mutagenic call: inactive; negative
[1]
  mutagenic call: inactive; negative
Test System: AMES SALMONELLA TYPHIMURIUM, Strain/Indicator: TA98, Metabolic Activation: RAT LIVER S-9, DELOR 103 (4% OR 10%), Method: STANDARD PLATE
  mutagenic call: inactive; negative
[2]
  mutagenic call: inactive; negative
Test System: AMES SALMONELLA TYPHIMURIUM, Strain/Indicator: TA100, Metabolic Activation: RAT LIVER S-9, DELOR 103 (4% OR 10%), Method: STANDARD PLATE
  mutagenic call: inactive; negative
[3]
  mutagenic call: inactive; negative
Test System: AMES SALMONELLA TYPHIMURIUM, Strain/Indicator: TA102, Metabolic Activation: RAT LIVER S-9, DELOR 103 (4% OR 10%), Method: STANDARD PLATE
  mutagenic call: inactive; negative

## c1cnc2cnncc2c1
[4]
  mutagenic call: inactive; negative
Test System: AMES SALMONELLA TYPHIMURIUM, Strain/Indicator: TA98, Metabolic Activation: RAT, LIVER, S-9, PCB, Method: PREINCUBATION
  mutagenic call: inactive; negative
[5]
  mutagenic call: inactive; negative
Test System: AMES SALMONELLA TYPHIMURIUM, Strain/Indicator: TA100, Metabolic Activation: RAT, LIVER, S-9, PCB, Method: PREINCUBATION
  mutagenic call: inactive; negative

## CCN(COC(C)=O)N=O
Test System: UDS RAT UROTHELIAL CELLS, Strain/Indicator: THY INCORP, Metabolic Activation: NONE
  mutagenic call: active; positive

## CN(N=O)C(=O)Oc1ccccc1Cl
Test System: E. COLI WP2, Strain/Indicator: WP2, Metabolic Activation: NONE, Method: STANDARD PLATE
  mutagenic call: active; positive

## CNCCO
[6]
  mutagenic call: inactive; negative
[4]
  mutagenic call: inactive; negative
[7]
  mutagenic call: inactive; negative
[8]
  mutagenic call: inactive; negative
[5]
  mutagenic call: inactive; negative
[9]
  mutagenic call: inactive; negative
[10]
  mutagenic call: inactive; negative
[11]
  mutagenic call: inactive; negative
[12]
  mutagenic call: inactive; negative
[13]
  mutagenic call: inactive; negative
[14]
  mutagenic call: inactive; negative
[15]
  mutagenic call: inactive; negative

## CCn1cc(C(=O)O)c(=O)c2cc(F)c(N3CCNCC3)cc21
End Point: In vitro micronucleus, Test System: WTK-1 human lymphoma cells, Metabolic Activation: None
  mutagenic call: active; positive
[4]
  mutagenic call: inactive; negative
Test System: AMES SALMONELLA TYPHIMURIUM, Strain/Indicator: TA98, Metabolic Activation: RAT LIVER S-9, AROCLOR 1254, Method: PREINCUBATION
  mutagenic call: inactive; negative
[5]
  mutagenic call: inactive; negative
Test System: AMES SALMONELLA TYPHIMURIUM, Strain/Indicator: TA100, Metabolic Activation: RAT LIVER S-9, AROCLOR 1254, Method: PREINCUBATION
  mutagenic call: inactive; negative
Test System: AMES SALMONELLA TYPHIMURIUM, Strain/Indicator: TA102, Metabolic Activation: NONE, Method: PREINCUBATION
  mutagenic call: active; positive
[3]
  mutagenic call: active; positive
Test System: AMES SALMONELLA TYPHIMURIUM, Strain/Indicator: TA102, Metabolic Activation: RAT LIVER S-9, AROCLOR 1254, Method: PREINCUBATION
  mutagenic call: active; positive
Test System: AMES SALMONELLA TYPHIMURIUM, Strain/Indicator: TA102, Metabolic Activation: RAT LIVER S-9, AROCLOR 1254, Method: STANDARD PLATE
  mutagenic call: active; positive
Test System: AMES SALMONELLA TYPHIMURIUM, Strain/Indicator: TA104, Metabolic Activation: NONE, Method: PREINCUBATION
  mutagenic call: active; positive
Test System: AMES SALMONELLA TYPHIMURIUM, Strain/Indicator: TA104, Metabolic Activation: RAT LIVER S-9, AROCLOR 1254, Method: PREINCUBATION
  mutagenic call: active; positive
Test System: AMES SALMONELLA TYPHIMURIUM, Strain/Indicator: UHT8414, Metabolic Activation: NONE, Method: PREINCUBATION
  mutagenic call: inactive; negative
Test System: AMES SALMONELLA TYPHIMURIUM, Strain/Indicator: UHT8414, Metabolic Activation: RAT LIVER S-9, AROCLOR 1254, Method: PREINCUBATION
  mutagenic call: inactive; negative
Test System: Ames Salmonella typhimurium, Strain/Indicator: TA102, Metabolic Activation: Rat, Liver, S9, Aroclor 1254, Method: Preincubation
  mutagenic call: active; positive. vitamin e (alpha-tocoferol) induced a statistically significant reduct
Test System: CHINESE HAMSTER V-79, Strain/Indicator: V-79 (HPRT)/6-THIOGUANINE, Metabolic Activation: NONE
  mutagenic call: inactive; negative
Test System: MOUSE LYMPHOMA, Strain/Indicator: L5178Y (HPRT)/6-THIOGUANINE, Metabolic Activation: NONE, Method: FLUCTUATION TEST
  mutagenic call: inactive; negative
Test System: MOUSE LYMPHOMA, Strain/Indicator: L5178Y (TK+/TK-), Metabolic Activation: NONE, Method: FLUCTUATION TEST
  mutagenic call: inactive; negative

## CCCN(CCC)S(=O)(=O)c1ccc(C(=O)O)cc1
[6]
  mutagenic call: inactive; negative
[4]
  mutagenic call: inactive; negative
[7]
  mutagenic call: inactive; negative
[8]
  mutagenic call: inactive; negative
[5]
  mutagenic call: inactive; negative
[9]
  mutagenic call: inactive; negative
[10]
  mutagenic call: inactive; negative
[11]
  mutagenic call: inactive; negative
[12]
  mutagenic call: inactive; negative
[13]
  mutagenic call: inactive; negative
[14]
  mutagenic call: inactive; negative
[15]
  mutagenic call: inactive; negative

## C1CSCSC1
[1]
  mutagenic call: active; positive
Test System: AMES SALMONELLA TYPHIMURIUM, Strain/Indicator: TA98, Metabolic Activation: RAT, LIVER, S-9, AROCLOR 1254, Method: STANDARD PLATE
  mutagenic call: inactive; negative
[2]
  mutagenic call: active; positive
Test System: AMES SALMONELLA TYPHIMURIUM, Strain/Indicator: TA100, Metabolic Activation: RAT, LIVER, S-9, AROCLOR 1254, Method: STANDARD PLATE
  mutagenic call: active; positive

## O=C1CCCc2cc3c(cc21)cc([N+](=O)[O-])c1ccccc13
Test System: AMES SALMONELLA TYPHIMURIUM, Strain/Indicator: TA98-1,8-DNP6, Metabolic Activation: NONE
  mutagenic call: active; positive
Test System: AMES SALMONELLA TYPHIMURIUM, Strain/Indicator: TA98-1,8-DNP6, Metabolic Activation: S-9
  mutagenic call: inactive; negative
Test System: AMES SALMONELLA TYPHIMURIUM, Strain/Indicator: TA98, Metabolic Activation: NONE
  mutagenic call: active; positive
Test System: AMES SALMONELLA TYPHIMURIUM, Strain/Indicator: TA98, Metabolic Activation: S-9
  mutagenic call: active; positive
Test System: AMES SALMONELLA TYPHIMURIUM, Strain/Indicator: TA98NR, Metabolic Activation: NONE
  mutagenic call: active; positive
Test System: AMES SALMONELLA TYPHIMURIUM, Strain/Indicator: TA98NR, Metabolic Activation: S-9
  mutagenic call: active; positive
Test System: AMES SALMONELLA TYPHIMURIUM, Strain/Indicator: TA100, Metabolic Activation: NONE
  mutagenic call: active; positive
Test System: AMES SALMONELLA TYPHIMURIUM, Strain/Indicator: TA100, Metabolic Activation: S-9
  mutagenic call: active; positive
Test System: AMES SALMONELLA TYPHIMURIUM, Strain/Indicator: TA100NR, Metabolic Activation: NONE
  mutagenic call: active; positive
Test System: AMES SALMONELLA TYPHIMURIUM, Strain/Indicator: TA100NR, Metabolic Activation: S-9
  mutagenic call: active; positive

## c1ccc(CN2CCN=N2)cc1
Test System: AMES SALMONELLA TYPHIMURIUM, Strain/Indicator: TA1535, Metabolic Activation: NONE, Method: STANDARD PLATE
  mutagenic call: active; positive

Reference: PubChem BioAssay AID1259407 (Chemical Carcinogenesis Research Information System (CCRIS), 2018)
